The subject of data set [1] is rats. The experiment in a line: Contextual fear conditioning task (scopolamine induced memory deficit). The data set is classed as in vivo, rat. The settings on record: scopolamine 0.3 mg/kg, s.c.; FIG. 3. Here is the method:
Contextual Fear Conditioning Task
Experiment was carried out over a period of two days. On day 1, rats were placed in the operant behavior chamber and allowed to acclimatize for 2 minutes. Rats received an unavoidable foot shock (unconditioned stimulus (US): electric shock of 0.5-0.7 mA for 3 sec). Following a 1 minute interval, shocks were repeated to deliver a total of three US. Rats were administered with vehicle or test compound post training. Scopolamine (0.3 mg/kg, s.c.) was administered 120 minutes after training.
On day 2, rats were placed in the operant behavior chamber and total freezing time was scored for a period of 5 minutes.

Data set [2] can be described thus: Rodent pharmacokinetic study. Particulars: male Wistar rats. Format: in vivo, rat. The procedure, abridged:
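Male Wistar rats (260±50 g, jugular-cannulated, n=3/group) dosed 3 mg/kg p.o. (fasted overnight) or 1 mg/kg i.v. Plasma sampled 0.08–24 h, quantified by LC-MS/MS (range ~1-1000 ng/mL). Cmax, Tmax, AUCt, T1/2, clearance, Vz and bioavailability derived by non-compartmental analysis.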

Data set [3] relates to soluble amyloid precursor protein α (sAPPα). The experiment in a line: Cortical sAPPα levels in mice brain (ELISA). Format: in vivo. Particulars: male C57BL/6J mice, 10 mg/kg, i.p., sixty minutes post treatment; FIG. 4. Here is the method: Modulation of Soluble Amyloid Precursor Protein α (sAPPα) Levels in Cortex
Estimation of Cortical sAPPα Levels in Mice Brain
Male C57BL/6J mice ([…]) were randomly divided (n=8 group) into five groups. Control group of mice were intraperitoneally (i.p.) administered with vehicle (99.75% of 0.25% HEC HHX+0.25% tween 80) and the treatment group of mice received a single intraperitoneal injection of example 18 (dose volume of 10 mL/kg). Mice were sacrificed by cervical dislocation at 60 minutes after administration of test compound. Brains were quickly isolated and the cortex was dissected at −20° C. The cortex was immediately kept on a dry ice and weighed before being stored at −80° C. until quantification of sAPPα using Enzyme-linked immunosorbent assay (ELISA).
• 1. […]
To investigate the role of an acute treatment of test compound on sAPPα levels, the expression of this protein was measured in homogenates obtained from the cortex of treated and untreated rats by employing ELISA assay. […]
Statistical analyses were performed using the Graph Pad Prism (Version 4). Results are expressed as Mean±SEM levels of sAPPα expressed as percentage of control values (rats treated with vehicle). Statistical significance after treatment was assessed using One-Way ANOVA followed by Dunnett's post test and the significance level was set below p value less than 0.05.
Background: An ELISA detects its analyte on a solid surface through an enzyme-linked reagent.

In data set [4] the test system is rats. The experiment in a line: Modulation of cerebral blood flow in frontal cortex (Laser Doppler). Format: in vivo, rat. Particulars: intravenous, anaesthetized rats; FIG. 6. As to the method:
Modulation of Cerebral Blood Flow in Frontal Cortex:
The effect of test compound on modulation of cerebral blood flow was evaluated using rats.
Rats were acclimatized to the laboratory environment for at least 7 days. Rats (300-350 grams) were housed in a group of four in a controlled environment (Temp=21±3° C.; Humidity=30-70%) and maintained on a 12-hour light/dark cycle with lights on at 07:00 AM. Food and water was provided ad libitum.
Rats were anaesthetized with 12% urethane (i.p.). Animal's body core temperature was maintained at 37° C. via a heating pad and rectal temperature probe. A small incision was made at one of the ventral side of the hind limb and the femoral vein was cannulated with PE10 tubing for drug application. Then animal was placed into a stereotaxic frame and a midline incision was made to expose the skull. A burr hole was drilled over the frontal cortex (stereotaxic coordinates 1 mm anterior and 4 mm lateral to bregma). Oxygen was supplied through the nose cone of the seterotaxic apparatus which was connected to the controlled gaseous supplier with a flow of 200 mL/minute. Laser Doppler probe (AD Instruments Inc) was placed over the hole to monitor cerebral blood flow. […] Data obtained was calculated as percent increase relative to resting basal blood flow level. […]

The mark [5] stands for this setting: rat, plasma, iv, 1 mg/kg i.v. (bolus).
Where [6] appears, read: rat, plasma, 3 mg/kg oral (gavage).

Regarding `O=C(N[C@H]1CCCC[C@@H]1O)C1=CN(Cc2cccc(F)c2F)c2ccccc2O1` [Example 18, N-(cis-1S, 2S-2-Hydroxycyclohexyl)-4-(2,3-difluorobenzyl)-4H-benzo[1,4]oxazine-2-carboxamide], the “Effect on scopolamine induced memory deficit (freezing time)” value in the data set with rats [1] is recorded as “reversed the scopolamine induced memory deficit”. Further, in data set [2] (1 mg/kg i.v. (bolus)), the AUC0-t came to 929 ± 27 ng·h/mL. In addition, the AUC0-t in data set [2] (3 mg/kg oral (gavage)) worked out at 2070 ± 839 ng·h/mL. In data set [2] (setting [5]), the clearance (usually the volume of plasma or blood freed of the substance per unit of time) is 17 ± 1 mL/min/kg and the half-life (as a rule, the time needed for the level to fall by half in the phase considered) is 2.1 ± 0.1 h. Also, the Vd in data set [2] (rat, plasma, iv, 1 mg/kg i.v. (bolus), read-out: Vz) was 3.2 ± 0.1 L/kg. Besides, in data set [2] (setting [6]), the Cmax (usually the peak of the concentration-time curve) is 477 ± 96 ng/mL, the Tmax (usually the time from dosing to the highest level) was determined as 0.42 ± 0.14 h and the half-life was 3.9 ± 0.8 h. Moreover, the bioavailability (commonly dose-corrected exposure relative to a reference, in per cent) in data set [2] (rat, plasma, 3 mg/kg oral vs 1 mg/kg i.v.) stood at 74 ± 30%. Moreover, in data set [3], the “mean increase in cortical sAPPα levels” value turned out to be 38%. The “cerebral blood flow in the frontal cortex” value in the data set on rats [4] is on record as “significantly increased”.

The record behind these values is patent publication US10308620B2, “Muscarinic M1 receptor positive allosteric modulators” (SUVEN LIFE SCIENCES LIMITED, priority 2015, dated 2019).
